Like-named read-outs stand apart in the source and are kept apart here.
Molecular target: T1, human LPAR1 (Homo sapiens, UniProt Q92633)
T1 construct: expressed in transfected cells
Assay: Test Example 1: antagonism against response of LPA-induced increase in intracellular Ca2+ concentration in RH7777 cells stably expressing human LPAR1
Assay type: cell-based
Procedure, shortened: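 RH7777 cells stably transfected with human LPAR1 were preincubated with test compound 30 min at 37 °C in HBSS/20 mM HEPES/probenecid/0.05% BSA buffer, pH 7.4, then LPA-stimulated.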

[1] = RH7777 cells stably expressing human LPAR1, Fluo-4 fluorescence, FDSS6000, read-out: IC50 value (concentration producing 50% antagonism against response of LPA-induced increase in intracellular Ca2+ concentration) (converted)

T1 sequence (Q92633 whole entry): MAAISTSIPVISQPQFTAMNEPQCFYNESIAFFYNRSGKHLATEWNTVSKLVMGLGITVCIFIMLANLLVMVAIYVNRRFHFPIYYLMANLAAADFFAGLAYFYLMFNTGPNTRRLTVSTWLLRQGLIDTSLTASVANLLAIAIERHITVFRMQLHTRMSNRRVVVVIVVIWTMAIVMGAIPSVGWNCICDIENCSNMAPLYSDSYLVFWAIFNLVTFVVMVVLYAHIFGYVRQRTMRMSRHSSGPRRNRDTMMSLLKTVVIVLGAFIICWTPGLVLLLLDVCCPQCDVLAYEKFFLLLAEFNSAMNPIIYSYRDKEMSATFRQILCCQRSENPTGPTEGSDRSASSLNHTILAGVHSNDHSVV

Compound	IC50 [1] [nM]	IC50 [nM]
COc1cc(C(C)N(CCCCc2ccccc2)C(=O)NC2(C(=O)O)CC(F)(F)C2)cc(OC)c1C (centres unmarked) [Example 1-66]	–	3.96
CCOc1cc([C@@H](C)N(CCCCc2ccccc2)C(=O)N[C@]2(C(=O)O)C[C@H](OC)C2)cc(OCC)c1C(C)=O [Example 1-87, Cis-1-({[(1R)-1-(4-Acetyl-3,5-Diethoxyphenyl)Ethyl](4-Phenylbutyl) Carbamoyl}Amino)-3-Methoxycyclobutane-1-Carboxylic Acid]	1.37	–
CCOc1cc(C(C)N(CCCCc2ccccc2)C(=O)NC2(C(=O)O)Cc3ccccc3C2)cc(OCC)c1C (centres unmarked) [Example 1-122]	12.7	–
CCOc1cc([C@@H](C)N(CCCCc2ccccc2)C(=O)NC2CCC[C@@H]2C(=O)O)cc(OCC)c1C(C)=O (some centres unmarked) [Example 1-134]	14.5	–
CCOc1cc(C(C)N(CCCCc2ccccc2)C(=O)NC2(C(=O)O)CC(F)(F)C2)cc(COC)c1C (centres unmarked) [Example 1-74]	7.15	–
CCOc1cc([C@@H](C)N(CCO[C@@H](C)c2ccccc2)C(=O)NC2(C(=O)O)CC(OC)C2)cc(OCC)c1C1CC1 (stereo partly drawn) [Example 4-129, cis-1-[([(1R)-1-(4-cyclopropyl-3,5-diethoxyphenyl)ethyl]{2-[(1S)-1-phenylethoxy]ethyl}carbamoyl)amino]-3-methoxycyclobutane-1-carboxylic acid]	1.03	–
CCOc1c(C(C)=O)ccc([C@@H](C)N(CCO[C@H](C)c2ccccc2)C(=O)NC2(C(=O)O)CC(OCC)C2)c1C (some centres unmarked) [Example 4-157]	3.71	–
CCOc1cc([C@@H](C)N(CCCc2ccccn2)C(=O)NC2(C(=O)O)CC(F)(F)C2)cc(OCC)c1C [Example 4-27]	220	–
CCOc1cc([C@@H](C)N(CCCCc2ccc(C)cc2)C(=O)NC2(C(=O)O)CC(F)(F)C2)cc(OCC)c1C [Example 4-17]	9.68	–
CCOc1cc([C@@H](C)N(CCCCc2ccccc2)C(=O)NC2(CC(=O)O)CCOCC2)cc(OCC)c1C(C)=O [Example 1-166]	11	–
CCOc1cc(C(C)N(CCCCc2ccccc2)C(=O)NC2(C(=O)O)CC(F)(F)C2)cc(OCC)c1C(C)C (centres unmarked) [Example 1-49]	5.21	–
CCOc1cc([C@@H](C)N(CCCCc2ccccc2)C(=O)NC2CC(C(=O)O)C2)cc(OCC)c1C1CC1 (some centres unmarked) [Example 1-130]	6.48	–
CCOc1cc([C@H](C)N(CCCCc2ccccc2)C(=O)NC2(C(=O)O)Cc3ccccc3C2)cc(OCC)c1C [Example 1-124, 2-({[(1S)-1-(3,5-Diethoxy-4-Methylphenyl)Ethyl](4-Phenylbutyl) Carbamoyl}Amino)-2,3-Dihydro-1H-Indene-2-Carboxylic Acid]	237	–
CCOc1cc([C@@H](C)N(CCCCc2ccccc2)C(=O)NC2(C(=O)O)Cc3ccccc3C2)cc(OCC)c1C [Example 1-123, 2-({[(1R)-1-(3,5-Diethoxy-4-Methylphenyl)Ethyl](4-Phenylbutyl) Carbamoyl}Amino)-2,3-Dihydro-1H-Indene-2-Carboxylic Acid]	12.7	–
CCOc1cc([C@@H](C)N(CCO[C@H](C)c2ccccc2)C(=O)NC2(C(=O)O)CC(F)(F)C2)cc(OCC)c1C(C)=O [Example 4-149]	3.4	–
CCOc1cc(C(C)N(CCCCc2ccccc2)C(=O)NC2(C(=O)O)CC(F)(F)C2)cc(OCC)c1C(=O)C(F)(F)F (centres unmarked) [Example 1-59]	14.9	–
COc1cc([C@@H](C)N(CCOCc2ccccc2)C(=O)NC2(C(=O)O)CC(F)(F)C2)cc(OC)c1C [Example 4-164]	3.26	–

Compound	IC50 [1] [nM]	IC50 [nM]
CCOc1cc([C@@H](C)N(CCCCc2ccccc2)C(=O)NC2(C(=O)O)CCOCC2)cc(OCC)c1C1CC1 [Example 1-155]	0.997	–
CCOc1cc(C(C)N(CCCCc2ccccc2)C(=O)NC2(C(=O)O)CC(OCC)C2)cc(OCC)c1C(C)=O (centres unmarked) [Example 1-96]	2.11	–
CCOc1cc([C@@H](C)N(Cc2cc3ccccc3[nH]2)C(=O)NC2(C(=O)O)CC(F)(F)C2)cc(OCC)c1C [Example 4-32]	733	–
CCOc1c(C(C)O)ccc([C@@H](C)N(CCCCc2ccccc2)C(=O)NC2(C(=O)O)CC(F)(F)C2)c1C (single isomer, unassigned) [Example 1-78]	5.87	–
CCOc1cc(C(C)N(CCCCc2ccccc2)C(=O)NC2(C(=O)O)CC(F)(F)C2)cc(OCC)c1C1CC1 (centres unmarked) [Example 1-25]	2.71	–
CCOc1cc([C@@H](C)N(CCO[C@@H](C)c2ccccc2Cl)C(=O)NC2(C(=O)O)CC(F)(F)C2)c(Cl)c(OCC)c1C(C)=O [Example 4-175]	3.47	–
CCOc1cc(C(C)N(CCCC(F)(F)c2ccccc2)C(=O)NC2(C(=O)O)CC2)cc(OCC)c1C(C)O (centres unmarked) [Example 4-48]	2.55	–
CCOc1cc([C@@H](C)N(CCCCc2ccccc2)C(=O)NC2(C(=O)O)CC(O)C2)cc(OCC)c1C (some centres unmarked) [Example 1-106]	8.72	–
CCOc1cc([C@@H](C)N(CCCCc2ccccc2)C(=O)NC2(C(=O)O)CC(F)(F)C2)cc(OCC)c1C(C)O (single isomer, unassigned) [Example 1-36]	1.04	–
CCOc1cc([C@@H](C)N(CC2CC(c3ccccc3)C2)C(=O)NC2(C(=O)O)CC(F)(F)C2)cc(OCC)c1C (some centres unmarked) [Example 4-42]	25.2	–
CCOc1cc(CN(CCCCc2ccccc2)C(=O)NC2(C(=O)O)CCCC2)cc(OCC)c1C [Example 3-2]	85.8	–
CCOc1cc([C@@H](C)N(CCCCc2ccccc2)C(=O)NC2(C(=O)O)CCC2)cc(OCC)c1C(C)=O [Example 1-20]	0.621	–
CCOc1c(C(C)(C)O)ccc([C@@H](C)N(CCCCc2ccccc2)C(=O)NC2(C(=O)O)CC(OCC)C2)c1C (some centres unmarked) [Example 1-104]	10.3	–
CCOc1cc([C@@H](C)N(CCO[C@@H](C)c2ccccc2)C(=O)N[C@]2(C(=O)O)C[C@@H](OCC)C2)cc(OCC)c1C(C)O (some centres unmarked) [Example 4-135]	5.33	–
CCOc1cc([C@@H](C)N(CCCCc2cccnc2)C(=O)NC2(C(=O)O)CC(F)(F)C2)cc(OCC)c1C [Example 4-29]	17.6	–
CCOc1cc([C@@H](C)N(CCCCc2ccccc2)C(=O)NC2(C(=O)O)CC2)cc(OCC)c1C [Example 1-17]	23.7	–

Further lines, with some results ahead:

IC50 [1] [nM]	Compound	IC50 [nM]
272	CCOc1cc(C(C)N(CCO[C@@H](C)c2ccccc2)C(=O)NC2(C(=O)OC)CC(OCC)C2)c(Cl)c(OCC)c1C(C)=O (some centres unmarked) [Example 6-5]	–
3930	Cc1cc(C)cc(CN(CCCCc2ccccc2)C(=O)NC2(C(=O)O)CCCC2)c1 [Example 5-23]	–
79.7	CCOc1cc(OCC)cc(C(C)N(CCCCc2ccccc2)C(=O)NC2(C(=O)O)Cc3ccccc3C2)c1 (centres unmarked) [Example 5-11]	–
4.29	CCOc1cc([C@@H](C)N(CCOCc2ccccc2)C(=O)NC2CCOCC2C(=O)O)c(Cl)c(OCC)c1C(C)O (single isomer, unassigned) [Example 5-70]	–
0.813	CCOc1cc(C(C)N(CCOCc2ccccc2)C(=O)NC2(C(=O)O)CC(OCC)C2)cc(OCC)c1C1CC1 (centres unmarked) [Example 5-219]	–
3.3	CCOc1cc([C@@H](C)N(CCOCc2ccccc2)C(=O)NC2CCOCC2C(=O)O)c(Cl)c(OCC)c1C(C)O (single isomer, unassigned) [Example 5-69]	–
1270	CCOC(=O)C1(NC(=O)N(CCO[C@@H](C)c2ccccc2)C(C)c2cc(OCC)c(C(C)=O)c(OCC)c2Cl)CC(F)(F)C1 (some centres unmarked) [Example 6-12]	–
2.38	CCOc1cc(C(C)N(CCOC(C)c2ccccc2)C(=O)NC2(c3nn[nH]n3)CC(OC)C2)cc(OCC)c1C1CC1 (centres unmarked) [Example 10-15]	–
1.1	CCOc1cc(C(C)N(CCOCc2ccccc2)C(=O)NC2(C(=O)O)CC(OCC)C2)cc(OCC)c1C1CC1 (centres unmarked) [Example 5-211]	–
5.08	CCOc1cc(C(C)N(CCCCc2ccccc2)C(=O)NC2(c3nn[nH]n3)CC(OC)C2)cc(OCC)c1C(C)=O (centres unmarked) [Example 10-14]	–
1.33	CCOc1cc(C(C)N(CCO[C@@H](C)c2ccccc2)C(=O)NC2(C(=O)O)CC(OC)C2)c(C)c(OCC)c1C1CC1 (some centres unmarked) [Example 5-203]	–
2.54	CCOc1cc([C@@H](C)N(CCCCc2ccccc2)C(=O)NC2(C(=O)O)CC(F)(F)C2)c(Cl)c(OCC)c1C(C)O (single isomer, unassigned) [Example 5-53]	–
1.74	COc1cc(C(C)N(CCOCc2ccccc2)C(=O)NC2(C(=O)O)CC(F)(F)C2)cc(OC)c1C1CC1 (centres unmarked) [Example 5-142]	–
0.961	COc1cc(C(C)N(CCOCc2ccccc2)C(=O)NC2(C(=O)O)CC(OC)C2)c(Cl)c(OC)c1C1CC1 (centres unmarked) [Example 5-153]	–
22.2	O=C(NC1(C(=O)O)CC(F)(F)C1)N(CCCCc1ccccc1)C1CCc2c(Cl)cc(Cl)cc21 (centres unmarked) [Example 5-116, 1-{[(4,6-Dichloro-2,3-Dihydro-1H-Inden-1-Yl) (4-Phenylbutyl) Carbamoyl]Amino}-3,3-Difluorocyclobutane-1-Carboxylic Acid]	–
16.7	CCOc1cc(C(C)N(CCOC(C)c2ccccc2)C(=O)N[C@]2(c3nn[nH]n3)C[C@@H](OC)C2)cc(OCC)c1C(C)O (some centres unmarked) [Example 10-17]	–
39.7	CC(c1ccc(C#N)cc1)N(CCCCc1ccccc1)C(=O)NC1(C(=O)O)CC(F)(F)C1 (centres unmarked) [Example 5-5]	–
13000	CCOc1cc(C(C)N(CCO[C@@H](C)c2ccccc2)C(=O)NC2(C(=O)OC(C)(C)C)CC(F)(F)C2)cc(OCC)c1C(C)=O (some centres unmarked) [Example 6-16]	–
8.18	COc1cc(C(C)N(CCO[C@@H](C)c2ccccc2)C(=O)NC2(C(=O)O)CCC2)cc(OC)c1C1CC1 (some centres unmarked) [Example 5-137]	–
4.55	COc1cc(C(C)N(CCOCc2ccccc2)C(=O)NC2(C(=O)O)CCC2)c(C)c(OC)c1C(C)=O (centres unmarked) [Example 5-134]	–
99.6	CCOc1cc(OCC)cc(C(C)N(CCCCc2ccccc2)C(=O)NC2(C(=O)O)CC(F)(F)C2)c1 (centres unmarked) [Example 5-1, 1-({[1-(3,5-Diethoxyphenyl)Ethyl](4-Phenylbutyl) Carbamoyl}Amino)-3,3-Difluorocyclobutane-1-Carboxylic Acid]	–
26.1	CCO[C@H]1C[C@@](NC(=O)N(CCO[C@@H](C)c2ccccc2)C(C)c2cc(OC)c(C(C)=O)c(OC)c2)(C(=O)O)C1 (some centres unmarked) [Example 5-126]	–
128	CC(=O)c1ccc(C(C)N(CCCCc2ccccc2)C(=O)NC2(C(=O)O)CC(F)(F)C2)cc1 (centres unmarked) [Example 5-4]	–

Reference: patent US12338203B2 (TAISHO PHARMACEUTICAL CO., LTD., priority 2019, dated 2025)
